Read-outs that look alike come from different tables or passages of the source.
What was measured:
[1] = tested on: Glucokinase (GK); conditions: cited from earlier work
[2] = tested on: Hexokinases I-III (HK1-111), low Km hexokinases; conditions: HK1-111, Table 1, cited from earlier work
[3] = tested on: RIN 1046-38 cells; assay: Insulin secretion in static incubation, glucose dose response with or without 5-thioglucose; assay type: cell-based; conditions: Rattus norvegicus; 2 mM 5-thioglucose, 0.25 mM glucose + 100 μM IBMX, 2 h; read-out: reduction in insulin secretion
Procedure: (§1) Cells were plated in 12-well dishes (Corning Glass Works, Corning, N.Y.) at a density of approximately 250,000 cells per well and allowed to grow for 48 hours. Cells were washed twice for 20 minutes each in HEPES/bicarbonate buffered salt solution (HBBSS; 114 mM NaCl, 4.7 mM KCl, 1.21 mM KH2 PO4, 1.16 mM MgSO4, 25.5 mM NaHCO3, 2.5 mM CaCl2, 10 mM Hepes) with 0.1% bovine serum albumin but without glucose. Secretion studies were then conducted by incubating cells in HBBSS containing 0.5% BSA and with glucose in a range of concentrations from 0 to 20 mM for two hours. These experiments were conducted in the presence and absence of 2 mM 5-thioglucose (Sigma, St. Louis, Mo.) and in the presence or absence of 100 μM isobutylmethylxanthine (IBMX). Following incubation, media was collected and assayed for insulin by radioimmunoassay with the DPC method, as described above. Secretion was normalized for cell number by measuring total protein in each well by the method of Bradford (1976), using the kit from Bio-Rad, Hercules, Calif.

[4] = tested on: EP 40/110 cells; assay: as above; assay type: cell-based, rat; conditions: 2 mM 5-thioglucose, + IBMX, 2 h
Procedure: as §1

[5] = tested on: R5C.I-17 cells; assay: as above; assay type: cell-based, rat
Procedure: as §1

[6] = tested on: EP 49/206 cells; assay: as above; assay type: cell-based, rat; conditions: 2 mM 5-thioglucose, + IBMX, 2 h
Procedure: as §1

In the case of OC[C@H]1OC(O)[C@H](O)[C@@H](O)[C@@H]1O (some centres unmarked) [glucose], the Km ([1]; GK of Table 1, read-out: Km glucose) is given as 5000 to 12000 µM, the Km ([1]; approximate, read-out: Km for glucose) is given as 6000 to 8000 µM and the Km ([2]; read-out: Km glucose) is given as 20 to 130 µM.
For O=C[C@H](O)[C@@H](O)[C@H](O)[C@H](S)CO [5-thioglucose], the inhibition at 2000 µM [3] was 50%, the “effect on insulin secretion response to 0.25 mM glucose” value [4] was “completely eliminated” and the inhibition at 2000 µM ([4]; Rattus norvegicus, read-out: reduction of insulin secretion response to 0.5 mM glucose) was 70%. The “maximal fold-response of insulin secretion” value ([5]; 2 mM 5-thioglucose present, seen at 1 mM glucose + IBMX (5.7-fold without 5-thioglucose)) was 3.9 fold, the inhibition at 2000 µM ([5]; Rattus norvegicus, 2 mM 5-thioglucose, no secretagogues or IBMX alone, 2 h, read-out: suppression of basal insulin secretion) was roughly 50% and the “effect on insulin secretion response to 0.05 and 0.25 mM glucose” value [6] was “completely eliminated”.
For O=P(O)(O)OC[C@H]1OC(O)[C@H](O)[C@@H](O)[C@@H]1O (some centres unmarked) [G-6-P, glucose-6-phosphate], the Ki ([1]; GK of Table 1, read-out: Ki G-6-P) is given as 60 mM, the “glucose-6-phosphate concentration required for appreciable inhibition” value [1] is given as greater than 10 mM and the Ki ([2]; read-out: Ki G-6-P) is given as 0.2 to 0.9 mM.
In the case of Nc1ncnc2c1ncn2[C@@H]1O[C@H](COP(=O)(O)OP(=O)(O)OP(=O)(O)O)[C@@H](O)[C@H]1O [ATP], the Km ([1]; GK of Table 1, read-out: Km ATP) is given as 500 µM and the Km ([2]; read-out: Km ATP) is given as 200 to 500 µM.

From patent US6194176A, “Recombinant expression of proteins from secretory cell lines” (priority 1997, dated 2001)
